Converted amounts (≈) assume the structure as drawn. Counter-ions that a name gives are not always drawn. Like-named read-outs stand apart in the source and are kept apart here.

Type in all cases: physicochemical
Data set [1] is described as follows: Hygroscopicity test by Dynamic Vapour Sorption (DVS). The note with it: RH modifications up to 90% at 25° C. An excerpt: The water uptake of crystalline NMS-E354 salts and free base was investigated by submitting a sample of such substances to a hygroscopicity test by means of a DVS 1000 (SMS). The apparatus is a “controlled atmosphere microbalance” where the weighed sample is exposed to programmed variations of the relative humidity (RH) at a constant and controlled temperature. The measured parameters (weight, time and RH), reported in Excel worksheets, allow obtaining hygroscopicity curves over the tested RH range. Sorption/desorption cycles between 0% and 90% RH can be performed at controlled temperature of 25° C. Progressive variations of RH can be of 10% and 3%; they are operated by the software at the equilibration of the sample weight. This condition can be defined at a constant rate of percent weight variation e.g. 0.005%/min.

The nature of data set [2]: Solubility of crystalline NMS-E354 salts and free base in 0.9% NaCl solution. The conditions noted are these: for Aqueous solubility value: stirred 4 hours at RT, excess solid (target 10 mg/ml), filtered, HPLC. As for the experimental part:
The determination of solubility of NMS-E354 salts has been performed by means of the following procedure: known amounts of crystalline NMS-E354 salts or free base stirred for 4 hours at RT in 0.9% NaCl solution, in condition of excess solid considering a target concentration of 10 mg/ml. The obtained preparations were filtered and analysed by means of HPLC.

A short description of data set [3]: Solubility of NMS-E354 free base in water and early formulation vehicles. As for the experimental part: The solubility of the NMS-E354 free base is about 4 mg/ml in 10% Polysorbate 80 in 5% dextrose solution, about 7 mg/ml in aqueous 50% Polyethylene Glycol 400 in 5% dextrose solution and about 1÷2 mg/ml when formulated as hydrochloride or phosphate in situ salt. NMS-E354 free base was also suitable for aqueous hypromellose suspensions at about 10 mg/ml. Therefore, the obtained free base was initially formulated as cosolvent based aqueous solution, in situ salt or hypromellose suspension in order to allow administration during early pharmacological and toxicological evaluation for early pharmacological studies.

For the molecule `NC(=O)c1cc(-c2ccnc(N)n2)[nH]c1-c1ccc(Cl)cc1Cl` [Hemifumarate salt, 5-(2-amino-pyrimidin-4-yl)-2-(2,4-dichloro-phenyl)-1H-pyrrole-3-carboxylic acid amide], the hygroscopicity result in data set [1] is recorded as “low hygroscopicity”. In data set [2], the Aqueous solubility value is on record as 0.02 mg/mL.

As to `NC(=O)c1cc(-c2ccnc(N)n2)[nH]c1-c1ccc(Cl)cc1Cl` [Maleate salt, 5-(2-amino-pyrimidin-4-yl)-2-(2,4-dichloro-phenyl)-1H-pyrrole-3-carboxylic acid amide], in data set [1], the hygroscopicity result was “low hygroscopicity”. Besides, in data set [2], the “solubility in 0.9% NaCl solution” value amounted to 0.07 mg/mL and the Aqueous solubility value is 0.07 mg/mL.

Regarding `NC(=O)c1cc(-c2ccnc(N)n2)[nH]c1-c1ccc(Cl)cc1Cl` [Mesylate salt, 5-(2-amino-pyrimidin-4-yl)-2-(2,4-dichloro-phenyl)-1H-pyrrole-3-carboxylic acid amide], the hygroscopicity entry in data set [1] is listed as “low hygroscopicity”. Further, the Aqueous solubility value in data set [2] stood at 0.12 mg/mL.

Regarding `NC(=O)c1cc(-c2ccnc(N)n2)[nH]c1-c1ccc(Cl)cc1Cl` [NMS-E354, 5-(2-amino-pyrimidin-4-yl)-2-(2,4-dichloro-phenyl)-1H-pyrrole-3-carboxylic acid amide], the hygroscopicity result in data set [1] is recorded as “low hygroscopicity”. The Aqueous solubility value in data set [2] (listed as Free base) is on record as less than 0.01 mg/mL. Besides, the solubility – broadly, the dissolved amount per volume that the medium holds – in data set [3] (10% Polysorbate 80 in 5% dextrose solution, aqueous with cosolvent or surfactant or cyclodextrin, read-out: solubility) was roughly 4 mg/mL (≈ 11.5 mM); in data set [3] (aqueous 50% Polyethylene Glycol 400 in 5% dextrose solution, aqueous with cosolvent or surfactant or cyclodextrin, read-out: solubility), roughly 7 mg/mL (≈ 20.1 mM); in data set [3] (hydrochloride or phosphate in situ salt formulation, formulated as hydrochloride or phosphate in situ salt, read-out: solubility), 1 to 2 mg/mL; in data set [3] (water, read-out: aqueous solubility), less than 0.01 mg/mL.

For the molecule `NC(=O)c1cc(-c2ccnc(N)n2)[nH]c1-c1ccc(Cl)cc1Cl` [Sulfate salt, 5-(2-amino-pyrimidin-4-yl)-2-(2,4-dichloro-phenyl)-1H-pyrrole-3-carboxylic acid amide], the hygroscopicity result in data set [1] is on record as “low hygroscopicity”. For the same molecule, in data set [2], the “solubility in 0.9% NaCl solution” value came out at 0.15 mg/mL and the Aqueous solubility value is reported as 0.15 mg/mL.

These data come from patent US8658662B2, “Crystalline CDC7 inhibitor salts” (Nerviano Medical Sciences S.r.l., priority 2009, dated 2014).
